One data set concerns As230 antiserum. Kind of data set: Cross-reactivity determinations in the indirect competitive ELISA As230/PC1-BSA (AE). In kind it is binding, New Zealand white rabbits. The conditions noted are these: for % RC (cross-reactivity): (IC50 1-hydroxyphenazine/IC50 phenazine compound)x100; for IC50: calibration curves in PBST, coating antigen PC1-BSA (AE), antiserum As230. As to the method:
The MALDI-TOF-MS mass spectrometer (mass spectrometer with laser assisted by ionization/desorption matrix with flight time) which it uses to characterize the conjugates of protein was a Bruker 200-Hz SmartBeam (Bruker-Daltonics, Leipzig, Germany). The detection was performed in the positive ion mode, ionized with a laser power set at 70% of the maximum laser intensity of the instrument at a frequency of 10-100 Hz. The pH and the conductivity of all the buffers and solutions was measured with a 540 GLP phMeter and a LF 340 conductivity meter, respectively (WTW, Weilheim, Germany). The polystyrene microtiter plates were from Nunc (Maxisorp, Roskilde, Denmark). The washing steps were carried out using a microplate washer (ELx405 HT (BioTek, Vinooski, Vt., USA)). The absorbencies were read in a SpectramaxPlus (Molecular Devices, Sunnyvale, Calif.) in a wavelength mode of 450 nm. The competition curves were analysed with a four-parameter equation using the SoftmaxPro v4.7 (Molecular Devices) and GraphPad Prism v 4 (GraphPad Software Inc, San Diego, Calif.) software. The standard curve was adjusted to a logistical equation of four parameters according to the formula y=(A−B/[1−(x/C)D])+B, where A is the maximum absorbance, B is the minimum absorbance, C is the concentration which produces 50% of the difference between the maximum and minimum absorbance (or IC50), and D is the gradient in the point of inflection of the sigmoidal curve. Unless indicated otherwise, the data shown correspond to the mean of at least two replicates.
The polyclonal antiserums As230, As231 and As232 were obtained by the immunization of New Zealand white rabbits (female) with weights around 1-2 kg with PC1-HCH (MA) following a protocol already described by Ballesteros et al. (Analytica Chimica Acta 1997, 347, 139). The evolution of the titers of antibodies was assessed by measuring the binding of serial solutions of each antiserum to microtiter plates coated with the homologous BSA conjugate. Once acceptable titers of antibodies are obtained, the animals were exsanguinated and the blood was collected in Vacutainer tubes provided with serum separation gel. The antiserums were obtained by centrifugation and were stored at −80° C. in the presence of 0.02% NaN3.
The microtiter plates were coated with PC1-BSA (AE) (0.125 μg/ml with coating buffer 100 μL/well) during 4 h at 25° C. with adhesive sealants. Then, the plates were washed four times with PBST (300 μL/well) before adding the standards (1-hydroxyphenazine or another type of related analytes, at different concentrations from 1000 nM to 0 nM in PBhST), and the samples at different concentrations (50 μl/well), followed by the As230 antiserum solution (1/8000 dilution in PBhST, 50 μl/well). After 30 min at ambient temperature, the plates were washed a further nine times with PBST and the anti-IgG-HRP solution was added (1/6000 in PBST, 100 μl/well). After 30 min of incubation at ambient temperature, the microplates were again washed four times with PBST and the substrate solution was added (100 μl/well) and the enzyme reaction was stopped after 30 min at ambient temperature by H2SO4 4 N (50 μl/well). The absorbencies were measured at 450 nm. The standard curve was adjusted to a logistical equation of four parameters according to the formula y=(A−B/[1−(x/C) D])+B, where A is the maximum absorbance, B is the minimum absorbance, C is the concentration that produces 50% of the difference between the maximum absorbance and minimum absorbance of the absorbance (or IC50), and D is gradient in the point of inflection of the sigmoidal curve. The limit of detection (LOD) is defined as the concentration which gives 90% response of the maximum absorbance (IC90) (see FIG. 1 and table 1).
Stock solutions were prepared of different compounds structurally related with pyocyanin and 1-hydroxyphenazine (10 mM in dimethyl sulfoxide) and they were stored at 4° C. […]

The nature of data set [1]: Conversion of pyocyanin into 1-hydroxyphenazine by NaOH, controlled by HPLC-UV. In kind it is physicochemical. The settings on record: 1 M NaOH, 20 min at a.t., phenazine as internal standard. As to the method: A 2M NaOH solution (250 μL) was added to a vial containing pyocyanin (10 mM, 25 μL) in 10 mM PBS (85 μL), previously spiked with phenazine (500 μM, 140 μL). The progress of the reaction was monitored by extracting aliquots (10 μL) from the reaction solution at various time intervals, diluting them with 250 mM PBS (90 μL) and adding 1 M HCl (10 μL) to neutralize the pH.
Therefore, it was necessary to develop a simple method to convert pyocyanin in 1-hydroxyphenazine with a good yield. This could be achieved by treating pyocyanin solutions with 1 M NaOH during 20 min at a.t. […] As shown in FIG. 2 (bottom), a good correlation was observed (R^2=0.943) between the sample measurements and the spiked samples for the detection of pyocyanin once hydrolyzed.

Molecules are shown by their SMILES.

`Oc1cccc2nc3ccccc3nc12` [1-hydroxyphenazine]: in the data set with As230 antiserum, the “% RC (cross-reactivity)” value worked out at 100% and the IC50 came to 0.62 nM.

In the case of `COS(=O)(=O)[O-].C[n+]1c2ccccc2nc2ccccc21` [Methyl 5-methylphenazine sulfate], in the data set with As230 antiserum, the “% RC (cross-reactivity)” value stood at 0.4% and the IC50 was 140 nM.

Take `O=C(O)c1ccc2nc3ccccc3nc2c1` [Phenazine-2-carboxylic acid]: in the data set with As230 antiserum, the “% RC (cross-reactivity)” value is reported as <0.1% and the IC50 is > 800 nM.

Take `c1ccc2nc3ccccc3nc2c1` [Phenazine]: in the data set with As230 antiserum, the “% RC (cross-reactivity)” value is <0.1% and the IC50 was > 800 nM.

On to `Cn1c2cccc(=O)c-2nc2ccccc21` [Pyocyanin, pyocyanin], for which, in the data set on As230 antiserum, the “% RC (cross-reactivity)” value is on record as <0.1% and the IC50 is > 800 nM. Further, the “% RC (cross-reactivity)” value in the data set with As230 antiserum (listed as pyocyanin) was “less than 0.1%”. Moreover, the “conversion of pyocyanin in 1-hydroxyphenazine (hydrolysis of the methyl group)” value in data set [1] was “quantitative”.

For the origin of these results see patent US10422791B2, “Haptens and conjugates derived from pyocyanin, antibodies thereof, and immunochemical method for detecting infections caused by Pseudomonas aeruginosa” (priority 2013, dated 2019).
